According to ChEMBL document CHEMBL3885881, “DrugMatrix”:

Species: Rattus norvegicus
Experiment: DrugMatrix - Regimen: Daily Repeat
Assay type: toxicity, organism-based, Sprague-Dawley
Set-up: regimen Daily Repeat, gender Male, age 6-8 weeks
Settings: in vivo, po, route oral GAVAGE, vehicle 100 % WATER; for ABSOLUTE BASOPHIL / ABSOLUTE EOSINOPHIL / ABSOLUTE LYMPHOCYTE / ABSOLUTE MONOCYTE / ABSOLUTE SEGMENTED NEUTROPHIL / BASOPHIL / EOSINOPHIL / ERYTHROCYTE COUNT / HEMATOCRIT / HEMOGLOBIN / LEUKOCYTE COUNT / LYMPHOCYTE / MEAN CORPUSCULAR HEMOGLOBIN / MEAN CORPUSCULAR HEMOGLOBIN CONCENTRATION / MEAN CORPUSCULAR VOLUME / MONOCYTE / NEUTROPHIL / NUCLEATED RED BLOOD CELLS / PLATELET COUNT: tissue Blood; for ALANINE AMINOTRANSFERASE / ALBUMIN / ALKALINE PHOSPHATASE / ASPARTATE AMINOTRANSFERASE / BLOOD UREA NITROGEN / CARBON DIOXIDE / CHLORIDE / CHOLESTEROL / CREATINE PHOSPHOKINASE / CREATININE / GLUCOSE / LACTATE DEHYDROGENASE / LIPASE / PHOSPHORUS / POTASSIUM / SODIUM / TOTAL BILIRUBIN / TOTAL PROTEIN / URIC ACID: tissue Plasma
[1] = 100 mg/kg, 72 h, dose level Low, time 3 day
[2] = 100 mg/kg, 120 h, dose level Low, time 5 day
[3] = 2000 mg/kg, 72 h, dose level High, time 3 day
[4] = 2000 mg/kg, 120 h, dose level High, time 5 day

Compound: O=C1O[C@H]([C@@H](O)CO)C(O)=C1O [ASCORBIC ACID]
- ABSOLUTE BASOPHIL [1]: 0 CELLS/uL
- ABSOLUTE EOSINOPHIL [1]: 27 CELLS/uL
- ABSOLUTE LYMPHOCYTE [1]: 7261.67 CELLS/uL
- ABSOLUTE MONOCYTE [1]: 27 CELLS/uL
- ABSOLUTE SEGMENTED NEUTROPHIL [1]: 717.67 CELLS/uL
- BASOPHIL [1]: 0%
- EOSINOPHIL [1]: 0.33%
- ERYTHROCYTE COUNT [1]: 4.91 x10E6/uL
- HEMATOCRIT [1]: 32.13%
- HEMOGLOBIN [1]: 13.13 G/DL
- LEUKOCYTE COUNT [1]: 8.03 x10E3/uL
- LYMPHOCYTE [1]: 89%
- MEAN CORPUSCULAR HEMOGLOBIN [1]: 26.8 pg
- MEAN CORPUSCULAR HEMOGLOBIN CONCENTRATION [1]: 40.87 G/DL
- MEAN CORPUSCULAR VOLUME [1]: 65.43 fL
- MONOCYTE [1]: 0.33%
- NEUTROPHIL [1]: 10.33%
- NUCLEATED RED BLOOD CELLS [1]: 0.33 /100WBC
- PLATELET COUNT [1]: 954.33 x10E3/uL
- ALANINE AMINOTRANSFERASE [1]: 50 u/L
- ALBUMIN [1]: 4.53 G/DL
- ALKALINE PHOSPHATASE [1]: 454.67 u/L
- ASPARTATE AMINOTRANSFERASE [1]: 87 u/L
- BLOOD UREA NITROGEN [1]: 15 mg/dL
- CARBON DIOXIDE [1]: 32.33 mmol/L
- CHLORIDE [1]: 101 MEQ/L
- CHOLESTEROL [1]: 78.33 mg/dL
- CREATINE PHOSPHOKINASE [1]: 273 u/L
- CREATININE [1]: 0.25 mg/dL
- GLUCOSE [1]: 121.33 mg/dL
- LACTATE DEHYDROGENASE [1]: 148.67 u/L
- LIPASE [1]: 9.67 u/L
- PHOSPHORUS [1]: 12.13 mg/dL
- POTASSIUM [1]: 7.25 MEQ/L
- SODIUM [1]: 146.63 MEQ/L
- TOTAL BILIRUBIN [1]: 0.23 mg/dL
- TOTAL PROTEIN [1]: 6.33 G/DL
- URIC ACID [1]: 1.07 mg/dL
- ABSOLUTE BASOPHIL [2]: 0 CELLS/uL
- ABSOLUTE EOSINOPHIL [2]: 0 CELLS/uL
- ABSOLUTE LYMPHOCYTE [2]: 12684.67 CELLS/uL
- ABSOLUTE MONOCYTE [2]: 119.33 CELLS/uL
- ABSOLUTE SEGMENTED NEUTROPHIL [2]: 1596 CELLS/uL
- BASOPHIL [2]: 0%
- EOSINOPHIL [2]: 0%
- ERYTHROCYTE COUNT [2]: 5.44 x10E6/uL
- HEMATOCRIT [2]: 34.63%
- HEMOGLOBIN [2]: 13.63 G/DL
- LEUKOCYTE COUNT [2]: 14.4 x10E3/uL
- LYMPHOCYTE [2]: 88.33%
- MEAN CORPUSCULAR HEMOGLOBIN [2]: 25.07 pg
- MEAN CORPUSCULAR HEMOGLOBIN CONCENTRATION [2]: 39.4 G/DL
- MEAN CORPUSCULAR VOLUME [2]: 63.67 fL
- MONOCYTE [2]: 1%
- NEUTROPHIL [2]: 10.67%
- NUCLEATED RED BLOOD CELLS [2]: 0 /100WBC
- PLATELET COUNT [2]: 1152.33 x10E3/uL
- ALANINE AMINOTRANSFERASE [2]: 51.67 u/L
- ALBUMIN [2]: 4.3 G/DL
- ALKALINE PHOSPHATASE [2]: 417 u/L
- ASPARTATE AMINOTRANSFERASE [2]: 79 u/L
- BLOOD UREA NITROGEN [2]: 17 mg/dL
- CARBON DIOXIDE [2]: 33.33 mmol/L
- CHLORIDE [2]: 103 MEQ/L
- CHOLESTEROL [2]: 73 mg/dL
- CREATINE PHOSPHOKINASE [2]: 142.33 u/L
- CREATININE [2]: 0.2 mg/dL
- GLUCOSE [2]: 152.67 mg/dL
- LACTATE DEHYDROGENASE [2]: 82.33 u/L
- LIPASE [2]: 8.33 u/L
- PHOSPHORUS [2]: 12.97 mg/dL
- POTASSIUM [2]: 6.73 MEQ/L
- SODIUM [2]: 148.3 MEQ/L
- TOTAL BILIRUBIN [2]: 0.2 mg/dL
- TOTAL PROTEIN [2]: 6.23 G/DL
- URIC ACID [2]: 1.53 mg/dL
- ABSOLUTE BASOPHIL [3]: 0 CELLS/uL
- ABSOLUTE EOSINOPHIL [3]: 0 CELLS/uL
- ABSOLUTE LYMPHOCYTE [3]: 11911.67 CELLS/uL
- ABSOLUTE MONOCYTE [3]: 70.67 CELLS/uL
- ABSOLUTE SEGMENTED NEUTROPHIL [3]: 1384.33 CELLS/uL
- BASOPHIL [3]: 0%
- EOSINOPHIL [3]: 0%
- ERYTHROCYTE COUNT [3]: 5.18 x10E6/uL
- HEMATOCRIT [3]: 32.77%
- HEMOGLOBIN [3]: 13.1 G/DL
- LEUKOCYTE COUNT [3]: 13.37 x10E3/uL
- LYMPHOCYTE [3]: 89.33%
- MEAN CORPUSCULAR HEMOGLOBIN [3]: 25.27 pg
- MEAN CORPUSCULAR HEMOGLOBIN CONCENTRATION [3]: 39.97 G/DL
- MEAN CORPUSCULAR VOLUME [3]: 63.27 fL
- MONOCYTE [3]: 0.67%
- NEUTROPHIL [3]: 10%
- NUCLEATED RED BLOOD CELLS [3]: 0 /100WBC
- PLATELET COUNT [3]: 1123.33 x10E3/uL
- ALANINE AMINOTRANSFERASE [3]: 37.67 u/L
- ALBUMIN [3]: 4.03 G/DL
- ALKALINE PHOSPHATASE [3]: 334 u/L
- ASPARTATE AMINOTRANSFERASE [3]: 76.33 u/L
- BLOOD UREA NITROGEN [3]: 15.33 mg/dL
- CARBON DIOXIDE [3]: 32.33 mmol/L
- CHLORIDE [3]: 101.67 MEQ/L
- CHOLESTEROL [3]: 63.67 mg/dL
- CREATINE PHOSPHOKINASE [3]: 214.33 u/L
- CREATININE [3]: 0.17 mg/dL
- GLUCOSE [3]: 146.33 mg/dL
- LACTATE DEHYDROGENASE [3]: 137.67 u/L
- LIPASE [3]: 9 u/L
- PHOSPHORUS [3]: 11.5 mg/dL
- POTASSIUM [3]: 6.65 MEQ/L
- SODIUM [3]: 144.3 MEQ/L
- TOTAL BILIRUBIN [3]: 0.2 mg/dL
- TOTAL PROTEIN [3]: 5.63 G/DL
- URIC ACID [3]: 1.4 mg/dL
- ABSOLUTE BASOPHIL [4]: 0 CELLS/uL
- ABSOLUTE EOSINOPHIL [4]: 0 CELLS/uL
- ABSOLUTE LYMPHOCYTE [4]: 16297.33 CELLS/uL
- ABSOLUTE MONOCYTE [4]: 372.33 CELLS/uL
- ABSOLUTE SEGMENTED NEUTROPHIL [4]: 863.67 CELLS/uL
- BASOPHIL [4]: 0%
- EOSINOPHIL [4]: 0%
- ERYTHROCYTE COUNT [4]: 5.49 x10E6/uL
- HEMATOCRIT [4]: 35.9%
- HEMOGLOBIN [4]: 14.2 G/DL
- LEUKOCYTE COUNT [4]: 17.53 x10E3/uL
- LYMPHOCYTE [4]: 93.33%
- MEAN CORPUSCULAR HEMOGLOBIN [4]: 25.9 pg
- MEAN CORPUSCULAR HEMOGLOBIN CONCENTRATION [4]: 39.53 G/DL
- MEAN CORPUSCULAR VOLUME [4]: 65.47 fL
- MONOCYTE [4]: 2%
- NEUTROPHIL [4]: 4.67%
- NUCLEATED RED BLOOD CELLS [4]: 0.33 /100WBC
- PLATELET COUNT [4]: 1195.67 x10E3/uL
- ALANINE AMINOTRANSFERASE [4]: 48 u/L
- ALBUMIN [4]: 4.23 G/DL
- ALKALINE PHOSPHATASE [4]: 355.33 u/L
- ASPARTATE AMINOTRANSFERASE [4]: 75.33 u/L
- BLOOD UREA NITROGEN [4]: 14.67 mg/dL
- CARBON DIOXIDE [4]: 33.67 mmol/L
- CHLORIDE [4]: 99.67 MEQ/L
- CHOLESTEROL [4]: 70.67 mg/dL
- CREATINE PHOSPHOKINASE [4]: 260 u/L
- CREATININE [4]: 0.26 mg/dL
- GLUCOSE [4]: 135.67 mg/dL
- LACTATE DEHYDROGENASE [4]: 215 u/L
- LIPASE [4]: 10.67 u/L
- PHOSPHORUS [4]: 11.83 mg/dL
- POTASSIUM [4]: 6.61 MEQ/L
- SODIUM [4]: 144.07 MEQ/L
- TOTAL BILIRUBIN [4]: 0.27 mg/dL
- TOTAL PROTEIN [4]: 6.03 G/DL
- URIC ACID [4]: 1.37 mg/dL
